In brackets after ≈: the same amount, converted by molar mass. Where two headings read alike, the source gives them in different places.
Assays:
[1] = molecular target: α-glucosidase from Saccharomyces cerevisiae (Saccharomyces cerevisiae, UniProt P53341); experiment: biochemical
Description: The α-glucosidase inhibitory effects of diphenylquinoxaline-6-carbohydrazide hybrids 7a–o were determined by previously reported method. […] Later on, 25 μL of the substrate (p-nitrophenyl glucopyranoside, 4 mM) was added to each well of the plate, and incubation was continued for 20 min at 37 ^◦C.

α-glucosidase [2] = molecular target: α-glucosidase; design: method as in PMID 24398385; settings: cited from earlier work
α-glucosidase [3] = molecular target: α-glucosidase (Saccharomyces cerevisiae, UniProt P53341); experiment: Enzyme kinetic studies (Lineweaver–Burk plot, secondary plot); assay type: biochemical
Chain of α-glucosidase (Saccharomyces cerevisiae, UniProt P53341) (P53341 whole entry): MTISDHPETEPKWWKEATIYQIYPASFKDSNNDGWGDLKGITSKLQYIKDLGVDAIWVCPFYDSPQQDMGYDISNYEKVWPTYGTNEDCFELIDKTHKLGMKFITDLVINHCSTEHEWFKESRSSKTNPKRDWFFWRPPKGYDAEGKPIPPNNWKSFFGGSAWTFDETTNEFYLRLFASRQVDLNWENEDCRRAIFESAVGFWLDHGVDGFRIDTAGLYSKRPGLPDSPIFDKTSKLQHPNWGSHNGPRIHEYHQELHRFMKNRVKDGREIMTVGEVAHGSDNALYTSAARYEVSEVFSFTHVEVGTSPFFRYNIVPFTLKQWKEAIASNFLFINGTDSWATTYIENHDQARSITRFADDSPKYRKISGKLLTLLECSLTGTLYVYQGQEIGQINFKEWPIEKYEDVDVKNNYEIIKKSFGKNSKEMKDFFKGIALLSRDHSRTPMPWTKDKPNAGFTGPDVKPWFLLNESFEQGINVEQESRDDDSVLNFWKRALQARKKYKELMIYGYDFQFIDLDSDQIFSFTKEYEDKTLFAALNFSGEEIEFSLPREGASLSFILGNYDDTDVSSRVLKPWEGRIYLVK
Description: A Lineweaver–Burk plot was generated to identify the type of inhibition and the Michaelis–Menten constant (Km) value was determined from the plot between reciprocal of the substrate concentration (1/[S]) and reciprocal of enzyme rate (1/V) over various inhibitor concentrations. The experimental inhibitor constant (Ki) value was constructed by secondary plots of the inhibitor concentration [I] versus Km.

α-glucosidase [4] = molecular target: α-glucosidase; design: method as in doi:10.1039/C9NJ02580D; settings: compound A versus standard acarbose; cited from earlier work

Chain of α-glucosidase from Saccharomyces cerevisiae (P53341 whole entry): as above

Structure (SMILES)	IC50 [1] [µM]	melting point [°C]	also measured
O=C(NN=Cc1cccc([N+](=O)[O-])c1)c1ccc2nc(-c3ccccc3)c(-c3ccccc3)nc2c1 [7c, N'-(3-nitrobenzylidene)-2,3-diphenylquinoxaline-6-carbohydrazide]	279 ± 5.8	> 250	–
COc1cc(/C=N/NC(=O)c2ccc3nc(-c4ccccc4)c(-c4ccccc4)nc3c2)cc(OC)c1OC [7k, (E)-2,3-diphenyl-N'-(3,4,5-trimethoxybenzylidene)quinoxaline-6-carbohydrazide]	> 750	–	–
O=C(NN=Cc1ccccc1)c1ccc2nc(-c3ccccc3)c(-c3ccccc3)nc2c1 [7a, N'-benzylidene-2,3-diphenylquinoxaline-6-carbohydrazide]	155 ± 3	230 to 232	–
O=C(NN=Cc1ccccc1[N+](=O)[O-])c1ccc2nc(-c3ccccc3)c(-c3ccccc3)nc2c1 [7b, N'-(2-nitrobenzylidene)-2,3-diphenylquinoxaline-6-carbohydrazide]	175 ± 5.9	> 250	–
O=C(NN=Cc1cccc(Oc2ccccc2)c1)c1ccc2nc(-c3ccccc3)c(-c3ccccc3)nc2c1 [7l, N'-(3-phenoxybenzylidene)-2,3-diphenylquinoxaline-6-carbohydrazide]	453 ± 4.7	> 250	–
O=C(NN=Cc1ccc(Cl)cc1)c1ccc2nc(-c3ccccc3)c(-c3ccccc3)nc2c1 [7f, N'-(4-chlorobenzylidene)-2,3-diphenylquinoxaline-6-carbohydrazide]	260 ± 4.5	234 to 238	–
O=C(NN=Cc1cccc2ccccc12)c1ccc2nc(-c3ccccc3)c(-c3ccccc3)nc2c1 [7n, N'-(naphthalen-1-ylmethylene)-2,3-diphenylquinoxaline-6-carbohydrazide]	388 ± 6.5	> 250	–
O=C(NN=Cc1cc([N+](=O)[O-])ccc1Cl)c1ccc2nc(-c3ccccc3)c(-c3ccccc3)nc2c1 [7i, N'-(2-chloro-5-nitrobenzylidene)-2,3-diphenylquinoxaline-6-carbohydrazide]	231 ± 5.5	> 250	–
O=C(NN=Cc1ccc([N+](=O)[O-])cc1)c1ccc2nc(-c3ccccc3)c(-c3ccccc3)nc2c1 [7d, N'-(4-nitrobenzylidene)-2,3-diphenylquinoxaline-6-carbohydrazide]	240 ± 7.5	> 250	–
O=C(NN=Cc1cc2c(cc1[N+](=O)[O-])OCO2)c1ccc2nc(-c3ccccc3)c(-c3ccccc3)nc2c1 [7m, N'-((6-nitrobenzo[d][1,3]dioxol-5-yl)methylene)-2,3-diphenylquinoxaline-6-carbohydrazide]	353.7 ± 3.5	> 250	–
O=C(N/N=C1/c2ccccc2-c2nc3ccccc3nc21)c1ccc(Br)cc1 [compound B]	–	–	IC50 (α-glucosidase [2]; compound B versus standard acarbose): 22.67 ± 0.1 µM
O=C(NN=Cc1cccc(F)c1)c1ccc2nc(-c3ccccc3)c(-c3ccccc3)nc2c1 [7e, N'-(3-fluorobenzylidene)-2,3-diphenylquinoxaline-6-carbohydrazide]	–	> 250	IC50 ([1]; in vitro α-glucosidase inhibition, substrate p-nitrophenyl glucopyranoside, mean ± SEM, at least three experiments, read-out: IC50): 111 ± 6 µM; type of inhibition (α-glucosidase [3]; Lineweaver–Burk plot, Km increased, Vmax unchanged): competitive; Ki (α-glucosidase [3]; secondary plot of Km versus inhibitor concentration (0, 30, 70 and 110 µM), read-out: inhibition constant Ki): 107 µM
Cc1ccc(NC(=O)Cn2c(=O)c(C)nc3ccccc32)c([N+](=O)[O-])c1 [compound C]	–	–	IC50 (α-glucosidase [2]; compound C versus standard acarbose): 83.8 ± 0.89 µM
COc1cccc(C=NNC(=O)c2ccc3nc(-c4ccccc4)c(-c4ccccc4)nc3c2)c1[N+](=O)[O-] [7h, N'-(3-methoxy-2-nitrobenzylidene)-2,3-diphenylquinoxaline-6-carbohydrazide]	305 ± 7.2	> 250	–
Cc1nc2ccccc2n(CC(=O)N/N=C/c2ccc(OCCc3cn(CN4CCOCC4)nn3)cc2)c1=O [compound A]	–	–	IC50 (α-glucosidase [4]): 21.92 µg/mL (≈ 41.3 µM)
O=C(NN=Cc1cccs1)c1ccc2nc(-c3ccccc3)c(-c3ccccc3)nc2c1 [7o, 2,3-diphenyl-N'-(thiophen-2-ylmethylene)quinoxaline-6-carbohydrazide]	145 ± 5	242 to 246	–
COc1cc(C=NNC(=O)c2ccc3nc(-c4ccccc4)c(-c4ccccc4)nc3c2)ccc1O [7j, N'-(4-hydroxy-3-methoxybenzylidene)-2,3-diphenylquinoxaline-6-carbohydrazide]	358 ± 6.1	> 250	–
COc1ccc(C=NNC(=O)c2ccc3nc(-c4ccccc4)c(-c4ccccc4)nc3c2)cc1 [7g, N'-(4-methoxybenzylidene)-2,3-diphenylquinoxaline-6-carbohydrazide]	320 ± 4.9	> 250	–

— PMC9341091, “Design, synthesis, and molecular docking studies of diphenylquinoxaline-6-carbohydrazide hybrids as potent α-glucosidase inhibitors” (BMC Chemistry, 2022)
